The record followed here is paper PMC10451623 (Antioxidants, 2023).

Structures are written as SMILES. Bounds are passed on as bounds.

A word on the EC50: it is the concentration at which the effect is half-maximal.

Assay [1] has as its target T1, PPARδ-LBD (Homo sapiens, UniProt Q03181).
T1 sequence (Q03181 170-441): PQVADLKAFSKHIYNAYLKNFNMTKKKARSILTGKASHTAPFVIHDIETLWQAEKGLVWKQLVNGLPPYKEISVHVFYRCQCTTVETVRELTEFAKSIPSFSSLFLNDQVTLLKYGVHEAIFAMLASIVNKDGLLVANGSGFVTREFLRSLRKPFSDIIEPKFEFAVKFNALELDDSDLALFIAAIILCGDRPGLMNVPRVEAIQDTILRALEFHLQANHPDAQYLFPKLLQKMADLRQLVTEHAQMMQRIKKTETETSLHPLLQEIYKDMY
Put plainly: Thermal stability assay using circular dichroism spectroscopy. It counts as binding. Also noted: PPARδ-LBD (amino acids 170–441); His tag (pET28a) (N); made in house; host or cells: Rosetta (DE3) pLysS (E. coli). The note with it: CD at 222 nm; 10 µM LBD; GW501516 at 50 µM. As for the experimental part: PPARα/δ/γ-LBD proteins (10 µM) were incubated with different concentrations of ligands in buffer C consisting of 20 mM Tris-HCl (pH 8.0), 150 mM NaCl, 1 mM Tris 2-carboxyethylphosphine (TCEP)-HCl, and 10% glycerol. The circular dichroism (CD) spectra were monitored within a 200–260 nm range at increasing temperatures from 30 °C to 70 °C (2 °C/min) using a J-1500 spectropolarimeter equipped with a PTC-510 thermal controller (JASCO, Tokyo, Japan). […] The ligand-induced increases in the Tm values were defined as ∆Tm.
Nuclear receptors, including PPARs, display an increased thermal stability upon ligand binding, which is detectable through CD spectroscopy.
Figure 3 Circular dichroism-based PPARα/δ/γ-LBD thermal stability assay. […] Data are presented as the mean ± SE of three or four (in parentheses) independent experiments. Differences vs. basal levels (with 0.1% DMSO) were statistically assessed by one-way ANOVA, followed by a Dunnett’s post hoc test: * p < 0.05, ** p < 0.01, and *** p < 0.001.

Another assay deals with T2, human PPARδ (Homo sapiens, UniProt Q03181).
T2 construct: expressed in transfected cells; host or cells: COS-7
T2 sequence (Q03181 211-439 limits assumed): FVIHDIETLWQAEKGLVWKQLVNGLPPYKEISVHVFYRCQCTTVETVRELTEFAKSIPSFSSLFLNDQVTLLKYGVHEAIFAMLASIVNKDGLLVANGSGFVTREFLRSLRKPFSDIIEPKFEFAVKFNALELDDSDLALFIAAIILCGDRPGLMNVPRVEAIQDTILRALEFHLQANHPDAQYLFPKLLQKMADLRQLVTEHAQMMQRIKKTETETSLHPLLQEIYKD
Put plainly: Transactivation assay (GAL4–hPPARδ-LBD chimera, luciferase reporter, COS-7 cells). It counts as cell-based. The note with it: for Emax: COS-7, read-out: Efficacy, PPARδ transactivation (% of the maximal response); for EC50: COS-7 cells, GAL4–hPPARδ-LBD. As for the experimental part:
The pSG5-GAL–hPPARα/δ/γ plasmids express fusion proteins comprising the yeast transcription factor GAL4 DNA-binding domain and each of the human PPARα/δ/γ-LBDs. The MH100(UAS)×4-tk-Luc plasmid contains four copies of the MH100 GAL4 binding site and the Firefly luciferase gene. The cells were transfected with those plasmids and were treated with various PPAR ligands, and both Firefly and Renilla luciferase activities were measured using the Dual-Glo Luciferase Assay System (Promega, Madison, WI, USA) as described previously. […] GW1929 was purchased from Sigma-Aldrich (St. Louis, MO, USA).
For the undertaking of the comparison of the potency, efficacy, and selectivity of the five PPAR ligands (Figure 1A) against the PPAR subtypes, we evaluated their PPARα/δ/γ activation using three different methods: a cell-based transactivation assay, a coactivator recruitment assay, and a thermal stability assay, as we previously performed on three fibrates (namely, bezafibrate, fenofibric acid, and pemafibrate). The cell-based transactivation assay utilizing the Gal4–PPAR-LBD system is the most widely used method for the determination of PPAR activation by certain ligands, although their responses depend on the used cell types in which several coactivators with altered functions are differentially expressed.
Figure 1 LBD-mediated human PPARα/δ/γ transactivation by PPAR ligands. (A) Chemical structures of the five PPAR ligands used in this study. […] Data are presented as the mean ± standard error (SE) of three independent experiments with duplicate samples.
On the technique in general: In a reporter assay the amount or activity of a reporter protein is the signal.

The target of assay [2] is T1, PPARδ-LBD. Put plainly: TR-FRET PGC1α coactivator recruitment assay. It counts as biochemical. Also noted: PPARδ-LBD (amino acids 170–441); made in house; host or cells: Rosetta (DE3) pLysS (E. coli). The conditions noted are these: for EC50: TR-FRET, PGC1α peptide, read-out: EC50, PGC1α recruitment to PPARδ-LBD. The procedure:
(§1) Subsequently, 5 µL of 4 nM Eu-W1024-labeled anti-6×His antibody/80 nM ULight-Streptavidin (PerkinElmer) was added to each well, and the microplate was incubated in the dark for 2 h, at room temperature. […] The nonlinear fitting and the calculation of the EC50 were performed using the Prism 9 software (GraphPad, San Diego, CA, USA).
(§2) The ligand-bound activated forms of PPARs are stabilized by associations with specific coactivators, thereby enabling the regulation of specific gene expression.
(§3) Figure 2 TR-FRET-based LBD-mediated human PPARα/δ/γ coactivator recruitment assay. […] Data are presented as the mean ± SE of three or four independent experiments with duplicate samples, and the calculated EC50 values are shown.
Background: In TR-FRET formats the signal depends on donor and acceptor labels being close together.

The target of assay [3] is T1, PPARδ-LBD. Description: TR-FRET SRC1 coactivator recruitment assay. It counts as biochemical. Also noted: PPARδ-LBD (amino acids 170–441); made in house; host or cells: Rosetta (DE3) pLysS (E. coli). The note with it: for EC50: TR-FRET, SRC1 peptide, read-out: EC50, SRC1 recruitment to PPARδ-LBD. As for the experimental part:
as §1, §2, §3

In the case of `CSc1ccc(C(=O)/C=C/c2cc(C)c(OC(C)(C)C(=O)O)c(C)c2)cc1` [elafibranor], on PPARδ-LBD [1], the “Effect on Tm of PPARδ-LBD (in words)” value is on record as “did not significantly alter the Tm values”. In addition, the Emax at human PPARδ was 14.8%.

With `O=C(O)CCCc1cc2cc(Cl)ccc2n1S(=O)(=O)c1ccc2ncsc2c1` [lanifibranor], the figures for the EC50 at PPARδ-LBD [2], on human PPARδ and on PPARδ-LBD [3] were 3860 nM, 398 nM and 4440 nM, respectively. Besides, the “Effect on Tm of PPARδ-LBD (in words)” value at PPARδ-LBD [1] is on record as “increased the Tm values”. The Emax on human PPARδ was found to be 13.3%.

Regarding `CCO[C@@H](Cc1ccc(OCCn2c(C)ccc2-c2ccc(SC)cc2)cc1)C(=O)O` [saroglitazar], the results for the concentration giving a half-maximal response (EC50) on PPARδ-LBD [2], at human PPARδ and on PPARδ-LBD [3] were more than 100000 nM, more than 10000 nM and more than 100000 nM, respectively. For the same compound, at PPARδ-LBD [1], the “Effect on Tm of PPARδ-LBD (in words)” value is reported as “highly increased the Tm values”. Besides, the Emax on human PPARδ is 6%.

Regarding `CCO[C@H](COc1ccc(C(F)(F)F)cc1)CSc1ccc(OCC(=O)O)c(C)c1` [seladelpar], on PPARδ-LBD [2] (100% = 1 µM GW501516), the “Efficacy, PGC1α recruitment to PPARδ-LBD” value is 124%. For the same compound, the EC50 on PPARδ-LBD [2] was found to be 30.7 nM; on human PPARδ, 20.2 nM; at PPARδ-LBD [3], 111 nM. Besides, the “Effect on Tm of PPARδ-LBD (in words)” value on PPARδ-LBD [1] is “increased the Tm values”. At human PPARδ, the Emax amounted to 99.3%. The “Efficacy, SRC1 recruitment to PPARδ-LBD” value at PPARδ-LBD [3] (100% = 1 µM GW501516) is reported as 83.0%.
